Tests used:
[1] = system: human influenza A virus NWS/33, H1N1; type: cell-based
[2] = system: human influenza A virus NWS/33, H1N1; type: cell-based; remark: listed apart in the source
[3] = system: human influenza A virus NWS/33, H1N1; type: cell-based; remark: listed apart in the source
[4] = system: virus-induced polypeptides of A/NWS/33 in LLC-MK2 cells; type: cell-based, influenza A virus; settings: MESNA 20 mg/ml, effect particularly evident at 1, 2, 5, 1.0, 15 mg/ml
[5] = system: avian influenza A virus Ulster/73, H7N1; type: cell-based; settings: A/Ulster/73, H7N1 strain
[6] = system: virus-specific receptors located on red blood cells; design: species or system human; settings: red blood cells used for the haemagglutination assay
[7] = system: viral haemagglutinin HA antigen on the cellular surface of infected LLC-MK2 cells; type: cell-based, influenza A virus; settings: 24 and 48 hours post infection; treated versus untreated infected LLC-MK2 cells

SMILES	time of addition up to which MESNA is effective [1]	reversibility of inhibition of the production of viral particles [2]	virus production (haemagglutination, presence/absence of mature viral particles) [3]	synthesis of virus-induced polypeptides (early and late viral proteins) [4]	results with avian strain compared with human influenza virus A/NWS/33 [5]	interference with virus-specific receptors on red blood cells [6]	haemagglutinin molecules on the surface of infected cells (haemadsorption values) [7]	antiviral action in comparison studies (all experiments repeated) [3]
O=S(=O)([O-])CCS.[Na+] [MESNA, Sodium 2-mercaptoethanesulfonate]	≤ 6 hours post infection	irreversible inhibition	able to suppress virus production	marked reduction	completely reproducible and absolutely comparable	did not interfere	great reduction, if not the absence	–
O=C([O-])CN(CCN(CC(=O)[O-])CC(=O)[O-])CC(=O)[O-].[Na+].[Na+].[Na+].[Na+] [sodium edetate]	–	–	–	–	–	–	–	not able to exert an antiviral action

Source: patent US20060189688A1 (priority 2003, published 2006)
